Test results as given in US20020048566A1, “Modulation of cellular apoptosis and methods for treating cancer” (priority 2000, published 2002).
Residues, ends and D or L forms follow the SMILES beside them. *: point of attachment. Cbz = O=C(OCc1ccccc1)*; CH2F = FC*

Key:
Type in all cases: cell-based, human
SW480 cells [1] = experiment: Blue cell assay (cotransfection with pCMVb gal, relative cell survival); conditions: for Blue cells % of vector: blue cells counted after 40 hours, vector-transfected blue cells set to 100% survival
Experimental: Blue Cell Method. The blue cell method was performed as previously described (Meng, R. D., et al., Mol. Ther. 1:130-144 (2000)). Calculations for Table I were carried out by setting the number of vector-transfected blue cells to 100% (at least 300 cells for each independent experiment), and the wild-type and point mutants were determined as a percentage of vector transfected.
Conserved Hydrophobic Residues Are More Critical for Apoptotic Signaling as Compared with Conserved Charged Positions in the KILLER/DR5 DD. In order to functionally characterize the mutant receptors, this study employed three methods to assess cell death following transfection. The first method involved cotransfection of the mutant receptor along with pCMVb gal. Blue cells were counted after 40 hours in order to determine relative cell survival as compared with vector-transfected cells (number of blue cells for vector was set as equivalent to 100% survival; Table I). To specifically measure apoptosis, this study used a cotransfection based flow cytometric assay to functionally assess apoptotic signaling of each substitution mutant. Each mutant was cotransfected with an EGFP-spectrin construct at a 10:1 ratio (mutant plasmid:EGFP-spectrin plasmid) into SW480 cells for 18 hours and the presence of a sub-G1 peak was used to quantitate apoptotic signaling. The use of the spectrinbound GFP allowed for the identification of specifically transfected cells, and the spectrin fusion permits cell membrane retention of GFP even if cells lose membrane permeability due to cell death (Kalejta, R. F., et al., Mol. Ther. 1:130-144 (2000)). […] One example of a signaling-competent and -incompetent mutant is also shown for comparison. Table II lists the results of three independent experiments for each mutant compared with the wild-type protein after subtracting out transfection-induced death.

SW480 cells [2] = experiment: GFP-spectrin/PI flow cytometry for sub-G1 peak after transient transfection; design: key to Apoptotic ability (Table II): WT, able to induce apoptosis as well as wild-type protein; ±, 20-25% reduction in ability to induce apoptosis; −, completely deficient in ability to induce apoptosis
Experimental: GFP/PI Fluorescence-activated Cell Sorting Analysis for Sub-G1 Peak. SW480 cells were transfected with a 1:10 ratio of EGFP-spectrin (Kalejta, R. F., et al., Mol. Ther. 1:130-144 (2000)) and KILLER/DR5 expression plasmid. Transfections were harvested at 18 hours after transfection, processed, and analyzed for the presence of a sub-G1 peak as described previously (Ozoren, N., et al., Int. J. Oncol. 16:917-925 (2000)). 10,000 GFP-positive cells were analyzed per experiment, and three independent experiments were performed for each mutant. Percentage of apoptosis was calculated by subtracting transfection-induced sub-G1 peak (vector transfection) from each wild-type or mutant KILLER/DR5 sub-G1 peak. Figures for Tables II and III were generated by setting wild-type death to 100% (˜40% sub-G1 peak at 18 hours) in order to compare point mutants to the wild-type protein.
(§1) Conserved Hydrophobic Residues Are More Critical for Apoptotic Signaling as Compared with Conserved Charged Positions in the KILLER/DR5 DD. In order to functionally characterize the mutant receptors, this study employed three methods to assess cell death following transfection. The first method involved cotransfection of the mutant receptor along with pCMVb gal. Blue cells were counted after 40 hours in order to determine relative cell survival as compared with vector-transfected cells (number of blue cells for vector was set as equivalent to 100% survival; Table I). To specifically measure apoptosis, this study used a cotransfection based flow cytometric assay to functionally assess apoptotic signaling of each substitution mutant. Each mutant was cotransfected with an EGFP-spectrin construct at a 10:1 ratio (mutant plasmid:EGFP-spectrin plasmid) into SW480 cells for 18 hours and the presence of a sub-G1 peak was used to quantitate apoptotic signaling. […]

SW480 cells [3] = experiment: PARP cleavage Western blot after transient transfection; conditions: 16 hours after transfection
Experimental: Transfections, in Vitro Translation, and Western Blotting. The colon cancer cell line SW480 was maintained and transfected as described previously (Wu, G. S., et al., Nat. Genet. 17:141-143 (1997)). Protein extracts were harvested in 1×Laemmli sample buffer 16 hours after transfection. PARP and Myc immunoblots were performed following SDS-polyacrylamide gel electrophoresis. Horseradish peroxidase-conjugated secondary antibody (1:5000) treatments were followed by enhanced chemiluminescence. In vitro translation reactions were carried out using 1 μg of wild-type or mutant KILLER/DR5 plasmid DNA and a T7-coupled reticulocyte lysate system.
as §1, with “The first method involved cotransfection of the mutant receptor along with pCMVb gal.” left out, “To specifically measure apoptosis, this study used a cotransfection based flow cytometric assay to functionally assess apoptotic signaling of each substitution mutant.” left out

[4] = tested on: TRAIL DISC (FADD and caspase 8 recruitment) in 293 HEK cells; experiment: TRAIL DISC immunoprecipitation; conditions: 16 hours transfection, then 50 ng/ml His-tagged TRAIL 15 minutes at 37° C.
Experimental: TRAIL DISC Immunoprecipitation. 293 HEK cells were plated to achieve 80% confluence at the time of transfection in a T75. 30 ug of the indicated KILLER/DR5 plasmid was transfected by calcium phosphate for 16 hours to minimize loss of transfected cells. The cells were then trypsinized, spun down, and resuspended in 2 ml of complete medium supplemented with 50 ng/ml His tagged-TRAIL and 1 μg/ml anti-6-histidine antibody for 15 minutes at 37° C. For untreated samples, only the TRAIL was excluded. The cells were washed twice with ice-cold phosphate-buffered saline and lysed for 30 minutes on ice in TRAIL DISC IP lysis buffer (30 mM Tris, pH 7.5, 150 mM NaCl, 10% glycerol, 1% Triton X-100). The lysates were cleared twice by centrifugation at 4° C. The supernatants were immunoprecipitated overnight with 30 μl of agarose at 4° C. to isolate the TRAIL DISC. The complexes were subsequently washed four times with TRAIL DISC IP lysis buffer and eluted with elution buffer with 0.1 M dithiothreitol at room temperature for 2 hours. The protein complexes were methanol/chloroform-precipitated and resolved on 15% SDS-polyacrylamide gels. […]
293 HEK cells were chosen due to their ability to be transfected and relative resistance to TRAIL-induced apoptosis. […] The DISC was then immunoprecipitated and analyzed for the presence of the exogenous KILLER/DR5 receptor along with FADD and caspase 8. […]

SW480 cell lines = experiment: FACS sub-G1 content after Ad-p53 infection of SW480 stably overexpressing c-FLIP-s or Bcl-XL; conditions: stable overexpression, 48 hours after infection
Excerpt: Cell culture and adenoviral/retroviral infection. The culture conditions for SW480, HCT 116, and SkBr3 were maintained as previously described (Wu et al., 1997). The adrenal carcinoma cell line, SW13 was a kind gift from R. Sheikhattar (Wistar Institute). Ad-LacZ and Ad-p53 were obtained from B. Vogelstein (Johns Hopkins University) All adenoviruses were propagated, titered, and amplified as previously described (El-Deiry et al., 1993). The retroviral vector pLIB, pLIB-EGFP, pLIB-c-Flip-s, or pLIB-Bcl-XL was cotransfected with pVSVG and pCgP (Dr. Michael Malim, University of Pennsylvania) into 293T cells using the CaPO4 method. The resulting supernatant was used to infect the SW480 cell line (3×10^5 cell/well plated 48 hours before infection) at a titer necessary to obtain greater than 90% infectivity as previously described (Fouchier et al., 1997).
Transfections and fluorescence-activated cell sorting (FACS) analysis. Transfections were carried out as previously described (Wu et al., 1997). In brief, before transfection, 5×10^5 cells/6 cm well were seeded. The cells were transfected with lipofectamine Plus. Four hours after transfections the media was changed and an irreversible caspase inhibitor, Z-IETD-FMK (caspase 8) or Z-LEHD-FMK (caspase 9) was added to the media at a final concentration of 20 μM. […]

[5] = tested on: adrenal carcinoma cell line SW13; experiment: FACS for active caspase 3 after p53 transfection with irreversible caspase inhibitors; conditions: inhibitor 20 μM added four hours after transfection, harvested at 24 hours
Experimental: Transfections and fluorescence-activated cell sorting (FACS) analysis. Transfections were carried out as previously described (Wu et al., 1997). In brief, before transfection, 5×10^5 cells/6 cm well were seeded. The cells were transfected with lipofectamine Plus. Four hours after transfections the media was changed and an irreversible caspase inhibitor, Z-IETD-FMK (caspase 8) or Z-LEHD-FMK (caspase 9) was added to the media at a final concentration of 20 μM. Cells were harvested 24 hours after transfection and prepared for detection of active-caspase 3 by flow cytometry as previously described (Ozoren et al., 2000). For adenoviral experiments, cells were harvested 48 hours after infection and fixed and stained with propidium iodide as previously described (Ozoren et al., 2000). Cell sorting was performed.
FIG. 5. Infection of colon carcinoma cell line SW480 and breast carcinoma cell line SKBr3 with Ad-p53 results in caspase cleavage and apoptosis. (a) Western blot analysis for PARP cleavage after adenovirus infection. SW480 and SKBr3 cell lines were infected with an MOI of 50 with either Ad-LacZ or Ad-p53 and harvested at 0, 24 and 48 hours after infection. […] (b) Western blot analysis of caspase 8 and 9 cleavage after adenovirus infection. […]

## Wild-type KILLER/DR5: wild-type TRAIL receptor KILLER/DR5, Myc-His tagged expression construct
SW480 cells [1]
  Blue cells % of vector: 8 ± 0.2 % of vector
SW480 cells [1]; text summary of Table I
  blue cell staining retained: 8%
SW480 cells [2]; at 18 hours, absolute value set as 100% wild-type death
  sub-G1 peak: ~40%
SW480 cells [3]
  PARP cleavage: efficiently caused PARP cleavage
[4]
  FADD and caspase 8 recruitment to TRAIL DISC: robust recruitment of both FADD and caspase 8

## K388A: KILLER/DR5 death domain alanine point mutant
SW480 cells [1]
  Blue cells % of vector: 9 ± 1.5 % of vector
SW480 cells [2]; 18 hours after transfection
  Apoptotic ability (Table II): WT
SW480 cells [2]; 18 hours after transfection, transfection-induced death subtracted, wild-type death set to 100%, three independent experiments
  Sub-G1 peak % WT (alanine scanning mutants): 101 ± 11.3 % WT

## Bcl-XL: stably over-expressed Bcl-XL, specific inhibitor of caspase 9 activation
SW480 cell lines
  inhibition of p53-mediated death after Ad-p53 infection (sub-G1): partially inhibit

## COC(=O)CC[C@H](NC(=O)[C@H](CC(C)C)NC(=O)OCc1ccccc1)C(=O)N[C@@H](Cc1cnc[nH]1)C(=O)N[C@@H](CC(=O)OC)C(=O)CF [Z-LETD-FMK, Z-LEHD-FMK] (Cbz-LE(OMe)HD(OMe)-CH2F)
[5]
  inhibition of p53-dependent apoptosis (activated caspase 3): could be inhibited

## CC[C@H](C)[C@H](NC(=O)OCc1ccccc1)C(=O)N[C@@H](CCC(=O)OC)C(=O)N[C@H](C(=O)N[C@@H](CC(=O)OC)C(=O)CF)[C@@H](C)O [Z-IETD-FMK] (Cbz-IE(OMe)TD(OMe)-CH2F)
[5]
  inhibition of p53-dependent apoptosis (activated caspase 3): could be inhibited
